Assay results from US20260138976A1 (Hoffmann-La Roche Inc., priority 2022, published 2026).

Tests used:
[1] = biological target: T1, DGKα (hDGKalpha(1-735)-N-His) (Homo sapiens, UniProt P23743); assay: In vitro DGK inhibition assay, DGKalpha ADP Glo (in house); format: biochemical; conditions: 4 nM DGKα, 25 μM ATP, 125 uM DLG in liposomes, 1 hour reaction
T1 construct: hDGKalpha(1-735)-N-His; His (N); made in house; host or cells: Sf21 insect cells (baculovirus)
In short: (§1)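 ADP-Glo luminescence measured ADP formed over 1 h by Sf21-expressed full-length human enzymes: DGKα at 4 nM with 25 µM ATP, DGKζ at 2 nM with 50 µM ATP, both on 125 µM DLG in PS/PC liposomes. Dose–response used 11 threefold dilutions at 2% final DMSO.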

[2] = biological target: T2, DGKζ (hDGKzeta(1-928)-N-His) (Homo sapiens, UniProt Q13574); assay: In vitro DGK inhibition assay, DGKzeta ADP Glo (in house); format: biochemical; conditions: 2 nM DGKζ, 50 μM ATP, 125 uM DLG in liposomes, 1 hour reaction
T2 construct: hDGKzeta(1-928)-N-His; His (N); made in house; host or cells: Sf21 insect cells (baculovirus)
T2 sequence (Q13574 whole entry): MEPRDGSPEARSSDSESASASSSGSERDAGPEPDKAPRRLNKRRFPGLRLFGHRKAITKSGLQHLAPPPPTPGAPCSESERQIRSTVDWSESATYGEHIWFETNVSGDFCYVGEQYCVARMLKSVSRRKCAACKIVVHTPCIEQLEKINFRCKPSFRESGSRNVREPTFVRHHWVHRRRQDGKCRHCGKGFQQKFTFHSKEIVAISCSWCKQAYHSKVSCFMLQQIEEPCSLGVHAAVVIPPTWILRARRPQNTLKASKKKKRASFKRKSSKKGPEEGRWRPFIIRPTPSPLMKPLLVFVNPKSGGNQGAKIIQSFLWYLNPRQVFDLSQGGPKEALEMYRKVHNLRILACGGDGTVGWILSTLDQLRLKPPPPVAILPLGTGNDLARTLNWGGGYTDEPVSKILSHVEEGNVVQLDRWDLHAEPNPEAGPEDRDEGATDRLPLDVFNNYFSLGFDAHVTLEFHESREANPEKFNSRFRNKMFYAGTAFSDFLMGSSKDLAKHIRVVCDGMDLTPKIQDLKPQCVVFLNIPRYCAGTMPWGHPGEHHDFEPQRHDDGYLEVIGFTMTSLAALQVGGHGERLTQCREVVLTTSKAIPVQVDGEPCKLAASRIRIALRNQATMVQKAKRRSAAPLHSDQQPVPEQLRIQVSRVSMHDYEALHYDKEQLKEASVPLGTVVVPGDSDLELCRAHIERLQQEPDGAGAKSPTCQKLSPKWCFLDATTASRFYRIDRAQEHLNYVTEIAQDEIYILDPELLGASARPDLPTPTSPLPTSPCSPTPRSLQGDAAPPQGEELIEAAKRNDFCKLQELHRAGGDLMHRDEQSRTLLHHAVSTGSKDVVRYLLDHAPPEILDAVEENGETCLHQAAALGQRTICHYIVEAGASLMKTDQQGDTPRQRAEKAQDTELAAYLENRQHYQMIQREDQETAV
In short: as §1

[3] = system: primary human T-cells; assay: Proliferation assay (5 days, CellTiter-Glo, CD3-stimulated T-cells); format: cell-based; conditions: for Emax proliferation (% activation): CD3 condition, normalised to DMSO (neutral) and 20 μM reference compound A1 = 100%; for EC50: Homo sapiens, T-cell, 120 h, CD3-stimulated primary human T-cells, 5 days, CellTiter-Glo, fitted sigmoidal curve, read-out: Tcell Proliferation CD3 EC50
In short: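 Proliferation read-out: ATP luminescence (CellTiter-Glo 2.0) at day 5 in expanded primary human T-cells on CD3 antibody-coated plates, with PBS-only plates as a counter screen. Compounds in 5–6 pt series (factor 3.333, top 20 or 10 μM final). Values are normalized to DMSO (neutral) and 20 μM reference A1 (100%), from sigmoidal fits.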

T1 sequence (P23743 whole entry): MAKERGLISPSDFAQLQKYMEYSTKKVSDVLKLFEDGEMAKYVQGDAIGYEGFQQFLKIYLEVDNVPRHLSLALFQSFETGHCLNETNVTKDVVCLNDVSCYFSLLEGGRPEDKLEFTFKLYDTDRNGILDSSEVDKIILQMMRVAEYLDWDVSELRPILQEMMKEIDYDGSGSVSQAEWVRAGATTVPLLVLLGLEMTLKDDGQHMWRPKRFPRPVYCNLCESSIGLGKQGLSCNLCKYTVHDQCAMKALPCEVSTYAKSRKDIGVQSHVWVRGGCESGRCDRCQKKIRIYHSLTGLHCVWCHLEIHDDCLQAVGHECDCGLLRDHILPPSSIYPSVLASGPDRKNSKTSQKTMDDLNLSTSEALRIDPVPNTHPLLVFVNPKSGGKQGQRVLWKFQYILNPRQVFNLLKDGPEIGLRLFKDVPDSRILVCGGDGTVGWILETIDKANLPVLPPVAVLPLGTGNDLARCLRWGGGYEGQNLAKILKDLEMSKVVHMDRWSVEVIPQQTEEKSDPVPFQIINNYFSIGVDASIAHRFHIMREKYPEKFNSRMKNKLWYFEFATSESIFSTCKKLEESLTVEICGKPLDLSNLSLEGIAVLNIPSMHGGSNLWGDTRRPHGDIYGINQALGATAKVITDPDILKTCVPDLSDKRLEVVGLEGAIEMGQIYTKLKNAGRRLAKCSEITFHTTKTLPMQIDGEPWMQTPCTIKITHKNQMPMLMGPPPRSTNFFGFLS

What does the source list for `N#CC1(c2nc(-c3cc4c(cc3F)S(=O)(=O)C[C@H](N)C(=O)N4Cc3ccc(-c4noc(C(F)(F)F)n4)cc3)no2)CC1` [Example 16, 1-[3-[(3R)-3-amino-8-fluoro-1,1,4-trioxo-5-[[4-[5-(trifluoromethyl)-1,2,4-oxadiazol-3-yl]phenyl]methyl]-2,3-dihydro-1λ^6,5-benzothiazepin-7-yl]-1,2,4-oxadiazol-5-yl]cyclopropanecarbonitrile]?
IC50 [1]: 1.74 µM; IC50 [2]: 0.281 µM; Emax proliferation (% activation) [3]: 228 % activation; EC50 [3]: 0.115 µM

For `N[C@H]1CS(=O)(=O)c2ccc(-c3nnc(C(N)(C4CC4)C(F)(F)F)o3)cc2N(Cc2ccc(-c3noc(C4CC4)n3)cc2)C1=O` (some centres unmarked) [Example 171], which IC50 [1] is on record?
Its IC50 is > 60 µM.

What about the IC50 [2] of the same compound?
The IC50 was 0.722 µM.

And the “Emax proliferation (% activation)” value [3]?
Its value is 109 % activation.

And the EC50 [3]?
Its EC50 is 1.52 µM.

Which results are given for `C[C@@](N)(c1nnc(-c2ccc3c(c2)N(Cc2ccc(-n4nnc(C(F)(F)F)n4)cc2)C(=O)[C@@H](N)CS3(=O)=O)o1)C(F)(F)F` [Example 156, (3R)-3-amino-7-[5-[(1R)-1-amino-2,2,2-trifluoro-1-methyl-ethyl]-1,3,4-oxadiazol-2-yl]-1,1-dioxo-5-[[4-[5-(trifluoromethyl)tetrazo 1-2-yl]phenyl]methyl]-2,3-dihydro-1λ^6,5-benzothiazepin-4-one]?
IC50 [1]: 17.8 µM; IC50 [2]: 2.96 µM; Emax proliferation (% activation) [3]: 141 % activation; EC50 [3]: 1.71 µM

Which results are given for `CC(C)(C#N)c1nnc(-c2ccc3c(c2)N(Cc2ccc(-c4noc(C5CCC(F)(F)CC5)n4)cc2)C(=O)[C@@H](N)CS3(=O)=O)o1` [Example 101, 2-[5-[(3R)-3-amino-5-[[4-[5-(4,4-difluorocyclohexyl)-1,2,4-oxadiazol-3-yl]phenyl]methyl]-1,1,4-trioxo-2,3-dihydro-1λ^6,5-benzothiazepin-7-yl]-1,3,4-oxadiazol-2-yl]-2-methyl-propanenitrile]?
IC50 [1]: 25.6 µM; IC50 [2]: 0.192 µM; Emax proliferation (% activation) [3]: 175 % activation; EC50 [3]: 0.552 µM

How did the IC50 [1] turn out when `CC(C)(C#N)c1nnc(-c2ccc3c(c2)N(Cc2ccc(-n4cc(C(F)(F)F)cn4)cc2)C(=O)[C@@H](N)CS3(=O)=O)o1` [Example 102, 2-[5-[(3R)-3-amino-1,1,4-trioxo-5-[[4-[4-(trifluoromethyl)pyrazol-1-yl]phenyl]methyl]-2,3-dihydro-1λ^6,5-benzothiazepin-7-yl]-1,3,4-oxadiazol-2-yl]-2-methyl-propanenitrile] was run?
Its IC50 is 1.12 µM.

What about the IC50 [2] of the same compound?
The IC50 was 0.747 µM.

What about the “Emax proliferation (% activation)” value [3] of the same compound?
The value was 127 % activation.

And the EC50 [3]?
The EC50 was 0.363 µM.

Which IC50 [1] does the source give for `COC(=O)N1CC2CC(c3nnc(-c4ccc5c(c4)N(Cc4ccc(-c6noc(C(F)(F)F)n6)cc4)C(=O)[C@@H](N)CS5(=O)=O)o3)(C2)C1` [Example 158, methyl 1-[5-[(3R)-3-amino-1,1,4-trioxo-5-[[4-[5-(trifluoromethyl)-1,2,4-oxadiazol-3-yl]phenyl]methyl]-2,3-dihydro-1λ^6,5-benzothiazepin-7-yl]-1,3,4-oxadiazol-2-yl]-3-azabicyclo[3.1.1]heptane-3-carboxylate] here?
Its IC50 is > 60 µM.

And the IC50 [2]?
Its IC50 is 1.13 µM.

What about the “Emax proliferation (% activation)” value [3] of the same compound?
The value was 150 % activation.

And the EC50 [3]?
Its EC50 is 0.304 µM.

What does the source list for `N[C@H]1CS(=O)(=O)c2cc(F)c(-c3noc(C4(CO)CCCO4)n3)cc2N(Cc2ccc(-c3noc(C(F)(F)F)n3)cc2)C1=O` (stereo partly drawn) [Example 18, (3R)-3-amino-8-fluoro-7-[5-[2-(hydroxymethyl)tetrahydrofuran-2-yl]-1,2,4-oxadiazol-3-yl]-1,1-dioxo-5-[[4-[5-(trifluoromethyl)-1,2,4-oxadiazol-3-yl]phenyl]methyl]-2,3-dihydro-1λ^6,5-benzothiazepin-4-one]?
IC50 [1]: 3.87 µM; IC50 [2]: 0.151 µM; Emax proliferation (% activation) [3]: 275 % activation; EC50 [3]: 0.445 µM

`N[C@H]1CS(=O)(=O)c2cc(F)c(-c3noc(N4CCOC5(CC5)C4)n3)cc2N(Cc2ccc(-c3noc(C(F)(F)F)n3)nc2)C1=O` [Example 14, (3R)-3-amino-8-fluoro-7-[5-(4-oxa-7-azaspiro[2.5]octan-7-yl)-1,2,4-oxadiazol-3-yl]-1,1-dioxo-5-[[6-[5-(trifluoromethyl)-1,2,4-oxadiazol-3-yl]-3-pyridyl]methyl]-2,3-dihydro-1λ^6,5-benzothiazepin-4-one] was tested. Which IC50 [1] did it give?
The IC50 was 36.9 µM.

What about the IC50 [2] of the same compound?
The IC50 was 0.144 µM.

What about the “Emax proliferation (% activation)” value [3] of the same compound?
Its value is 96 % activation.

What about the EC50 [3] of the same compound?
The EC50 was 3.85 µM.
